Results as given in patent publication US11390631B1, “Benzodiazepine derivatives as RSV inhibitors” (priority 2015, dated 2022).
pEC50: −log10 of the molar value.

What was measured:
[1] = tested on: Human RSV-A (“Long” strain); test: RSV-A assay: inhibition of cytopathic effect in Hep-2 cells, ATPlite readout; assay type: cell-based, Human respiratory syncytial virus (HRSV); settings: human respiratory syncytial virus, HEp-2, 120 h, read-out: Human RSV-A (“Long” strain) EC50
Procedure, shortened: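 Hep-2 cells (8,000/well) were infected with RSV-A Long at MOI 0.1 alongside duplicate 2-fold compound dilutions. After 5 days, cell viability was read by ATPlite luminescence to give EC50. CC50 came from a parallel plate without virus.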

[2] = Cytotoxicity on parallel plate without virus, ATPlite readout; assay type: cell-based; settings: human, Hep-2 cells (no virus), Hep-2 cells without virus, 5-day incubation
Method: Following extensive parameter testing, the final assay is run as follows: Hep-2 cells are seeded into the inner 60 wells of a 96-well plate at 8,000 cells per well in a volume of 50 μL using Growth Media (DMEM without phenol red, 1% L-Glut, 1% Penn/Strep, 1% nonessential amino acids, 10% heat-inactivated FBS). 2-fold serial dilutions of control and test compounds are added to the wells in duplicate in a total volume of 25 μL. Viral stock is then added to the wells at a multiplicity of infection (MOI) of 0.1 in a volume of 25 μL, bringing the total volume of each well to 100 μL. The MOI is calculated using the PFU/mL, or TCID50 if unavailable. Each 96-well plate has a control column of 6 wells with cells and virus but no compound (negative control, max CPE), a column with cells but no compound or virus (positive control, minimum CPE), and a column with no cells or virus or compound (background plate/reagent control). The control wells with cells but no virus are given an additional 25 uL of growth media containing an equal quantity of sucrose as those wells receiving the viral stock in order to keep consistent in media and volume conditions. The outer wells of the plate are filled with 125 μL of moat media (DMEM, 1% Penn/Strep) to act as a thermal and evaporative moat around the test wells. Following a 5-day incubation period, the plates are read using ATPlite (50 uL added per well), which quantifies the amount of ATP (a measure of cell health) present in each well. Assay plates are read using the Envision luminometer. In parallel, cytotoxicity is examined on an additional 96-well plate treated in an identical manner, but substituting the 25 μL of viral stock for 25 μL of growth media. […] EC50 ranges are as follows: A<0.4 μM; B 0.4-0.8 μM; C>0.8 μM and CC50 ranges are as follows: A>50 μM; B 10-50 μM; C<10 μM.

Compound	pEC50 [1]	CC50 at 5 days [2] [nM]
N#Cc1ccc(-c2nnc(NC3N=C(c4ccccc4)c4ccccc4NC3=O)o2)cc1 (centres unmarked) [Example 12]	6.10 to 6.40	> 50000
O=C1Nc2ccccc2C(c2ccccc2)=NC1Nc1nnc(-c2ccc(Cl)cc2)o1 (centres unmarked) [Example 13]	> 6.40	> 50000
COc1cc(-c2nnc(NC3N=C(c4ccccc4)c4ccccc4NC3=O)o2)ccc1F (centres unmarked) [Example 14]	> 6.40	10000 to 50000
CC(C)Oc1cccc(-c2nnc(NC3N=C(c4ccccc4)c4ccccc4NC3=O)o2)c1 (centres unmarked) [Example 15]	6.10 to 6.40	> 50000
O=C1Nc2ccccc2C(c2ccccc2)=NC1Nc1nnc(-c2ccc3ccccc3c2)o1 (centres unmarked) [Example 16]	6.10 to 6.40	> 50000
O=C1Nc2ccccc2C(c2ccccc2)=NC1Nc1nnc(-c2cccc3ccccc23)o1 (centres unmarked) [Example 17]	< 6.10	> 50000
Cc1nnc(NC2N=C(c3ccccc3)c3ccccc3NC2=O)o1 (centres unmarked) [Example 18]	< 6.10	> 50000
Cc1ccc(-c2nnc(NC3N=C(c4ccccc4)c4ccccc4NC3=O)o2)s1 (centres unmarked) [Example 19]	< 6.10	> 50000
O=C1Nc2ccccc2C(c2ccccc2)=NC1Nc1nnc(-c2ccc(Cl)o2)o1 (centres unmarked) [Example 20]	< 6.10	> 50000
O=C1Nc2ccccc2C(c2ccccc2)=NC1Nc1nnc(C2CCOCC2)o1 (centres unmarked) [Example 21]	< 6.10	> 50000
O=C1Nc2ccccc2C(c2ccccc2)=NC1Nc1nnc(Cc2ccccc2)o1 (centres unmarked) [Example 22]	< 6.10	> 50000
O=C1Nc2ccccc2C(c2ccccc2)=NC1Nc1nnc(-c2ccc(F)cn2)o1 (centres unmarked) [Example 23]	< 6.10	> 50000
O=C1Nc2ccccc2C(c2ccccc2)=NC1Nc1nnc(-c2ccc(C(F)(F)F)cn2)o1 (centres unmarked) [Example 25]	< 6.10	> 50000
Cc1cccc(-c2nnc(NC3N=C(c4ccccc4)c4ccccc4NC3=O)o2)n1 (centres unmarked) [Example 26]	< 6.10	> 50000
CS(=O)(=O)c1ccc(-c2nnc(NC3N=C(c4ccccc4)c4ccccc4NC3=O)o2)cc1 (centres unmarked) [Example 27]	< 6.10	> 50000
O=C1Nc2ccccc2C(c2ccccc2)=NC1Nc1nnc(-c2ccc(C(F)(F)F)cc2)o1 (centres unmarked) [Example 28]	< 6.10	> 50000
O=C1Nc2ccccc2C(c2ccccc2)=NC1Nc1nnc(-c2cccc(C(F)(F)F)c2)o1 (centres unmarked) [Example 29]	< 6.10	> 50000
O=C1Nc2ccccc2C(c2ccccc2)=NC1Nc1nnc(-c2ccc(OC(F)(F)F)cc2)o1 (centres unmarked) [Example 30]	< 6.10	> 50000
NS(=O)(=O)c1ccc(-c2nnc(NC3N=C(c4ccccc4)c4ccccc4NC3=O)o2)cc1 (centres unmarked) [Example 31]	6.10 to 6.40	> 50000
N#Cc1cc(-c2nnc(NC3N=C(c4ccccc4)c4ccccc4NC3=O)o2)ccc1F (centres unmarked) [Example 32]	6.10 to 6.40	> 50000
N#Cc1ccc(-c2nnc(NC3N=C(c4ccccc4)c4ccccc4NC3=O)o2)cc1F (centres unmarked) [Example 33]	< 6.10	> 50000
Cc1cc(-c2nnc(NC3N=C(c4ccccc4)c4ccccc4NC3=O)o2)ccc1C#N (centres unmarked) [Example 34]	6.10 to 6.40	> 50000
N#Cc1cccc(-c2nnc(NC3N=C(c4ccccc4)c4ccccc4NC3=O)o2)c1 (centres unmarked) [Example 35]	< 6.10	> 50000
O=C1Nc2ccccc2C(c2ccccc2)=NC1Nc1nnc(-c2ccc(-n3cccn3)cc2)o1 (centres unmarked) [Example 36]	6.10 to 6.40	10000 to 50000
O=C1Nc2ccccc2C(c2ccccc2)=NC1Nc1nnc(-c2cccnc2)o1 (centres unmarked) [Example 37]	< 6.10	> 50000

Compound	pEC50 [1]	CC50 at 5 days [2] [nM]
N#Cc1cc(-c2nnc(NC3N=C(c4ccccc4)c4ccccc4NC3=O)o2)ccn1 (centres unmarked) [Example 38]	< 6.10	> 50000
O=C1Nc2ccccc2C(c2ccccc2)=NC1Nc1nnc(-c2ccc(=O)[nH]c2)o1 (centres unmarked) [Example 39]	< 6.10	> 50000
O=C1Nc2ccccc2C(c2ccccc2)=NC1Nc1nnc(-c2cc[nH]c(=O)c2)o1 (centres unmarked) [Example 40]	< 6.10	> 50000
O=C1Nc2ccccc2C(c2ccccc2)=NC1Nc1nnc(-c2ccc3nc[nH]c3c2)o1 (centres unmarked) [Example 41]	< 6.10	> 50000
O=C1Nc2ccccc2C(c2ccccc2)=NC1Nc1nnc(-c2cc3cccnc3s2)o1 (centres unmarked) [Example 43]	< 6.10	> 50000
CN1CCc2nc(-c3nnc(NC4N=C(c5ccccc5)c5ccccc5NC4=O)o3)sc2C1 (centres unmarked) [Example 44]	< 6.10	> 50000
O=C1Nc2ccccc2C(c2ccccc2)=NC1Nc1nnc(C2CCNCC2)o1 (centres unmarked) [Example 45]	< 6.10	> 50000
CN1CCC(c2nnc(NC3N=C(c4ccccc4)c4ccccc4NC3=O)o2)CC1 (centres unmarked) [Example 46]	< 6.10	> 50000
CC(=O)N1CCC(c2nnc(NC3N=C(c4ccccc4)c4ccccc4NC3=O)o2)CC1 (centres unmarked) [Example 47]	< 6.10	> 50000
O=C1Nc2ccccc2C(c2ccccc2)=NC1Nc1nnc([C@@H]2COCCN2)o1 (some centres unmarked) [Example 48]	< 6.10	> 50000
O=C1Nc2ccccc2C(c2ccccc2)=NC1Nc1nnc([C@H]2COCCN2)o1 (some centres unmarked) [Example 49]	< 6.10	> 50000
O=C1Nc2ccccc2C(c2ccccc2)=NC1Nc1nnc(-c2ccc(F)cc2F)o1 (centres unmarked) [Example 50]	< 6.10	> 50000
COc1ccc(-c2nnc(NC3N=C(c4ccccc4)c4ccccc4NC3=O)o2)nc1 (centres unmarked) [Example 51]	6.10 to 6.40	> 50000
COc1cccc(-c2nnc(NC3N=C(c4ccccc4)c4ccccc4NC3=O)o2)n1 (centres unmarked) [Example 52]	> 6.40	> 50000
O=C1Nc2ccccc2C(c2ccccc2)=NC1Nc1nnc(-c2ccc(F)nc2)o1 (centres unmarked) [Example 53]	6.10 to 6.40	> 50000
COc1ccc(-c2nnc(NC3N=C(c4ccccc4)c4ccccc4NC3=O)o2)cn1 (centres unmarked) [Example 54]	> 6.40	> 50000
O=C1Nc2ccccc2C(c2ccccc2)=NC1Nc1nnc(-c2ccnc(F)c2)o1 (centres unmarked) [Example 55]	> 6.40	> 50000
COc1ccnc(-c2nnc(NC3N=C(c4ccccc4)c4ccccc4NC3=O)o2)c1 (centres unmarked) [Example 57]	< 6.10	> 50000
O=C1Nc2ccccc2C(c2ccccc2)=NC1Nc1nnc(-c2cnccn2)o1 (centres unmarked) [Example 58]	< 6.10	> 50000
O=C1Nc2ccccc2C(c2ccccc2)=NC1Nc1nnc(-c2ncccn2)o1 (centres unmarked) [Example 59]	< 6.10	> 50000
O=C1Nc2ccccc2C(c2ccccc2)=NC1Nc1nnc(-c2cncnc2)o1 (centres unmarked) [Example 60]	< 6.10	> 50000
O=C1Nc2ccccc2C(c2ccccc2)=NC1Nc1nnc(-c2ccncc2)o1 (centres unmarked) [Example 61]	6.10 to 6.40	> 50000
O=C1Nc2ccccc2C(c2ccccc2)=NC1Nc1nnc(-c2cccnn2)o1 (centres unmarked) [Example 62]	< 6.10	> 50000
O=C1Nc2ccccc2C(c2ccccc2)=NC1Nc1nnc(-c2ccncn2)o1 (centres unmarked) [Example 63]	< 6.10	> 50000
